Test results taken from paper PMC5025780, “Copper(II) ions affect the gating dynamics of the 20S proteasome: a molecular and in cell study” (Scientific Reports, 2016).
Read-outs that look alike come from different tables or passages of the source.

Legend:
[1] = molecular target: T1, human 20S proteasome (hCP), C-L activity; assay: C-L peptidase activity of isolated hCP (fluorogenic substrate); format: biochemical
T1 construct: purchased Boston Biochem (Cambridge, MA, USA)
Excerpt: (§1) Purified human 20S proteasome (hCP) and the fluorogenic substrates Suc-LLVY-AMC, Z-Leu-Leu-Glu-AMC, and Ac-Arg-Leu-Arg-AMC used to assay the ChT-L, T-L, and C-L activity, were from Boston Biochem (Cambridge, MA, USA). Bathocuproinedisulfonic acid disodium salt (BCS), dithiothreitol (DTT), N-Acetyl-L-Cysteine (NAC), Sodium dodecylsulphate (SDS) as well as CuCl2 and Zn(NO3)2 were from Sigma-Aldrich (St. Louis, MO). Proteasome inhibitors Epoxomicin were obtained from Enzo Life Science. Wild type 20S proteasome isolated from Saccharomices Cerevisiae (yCP) and a mutant (α3ΔN) where nine residues of the N-terminal tail of the α3 subunit are deleted to provide a permanently open-gate conformations were isolated as described elsewhere.
Peptidase activities of hCP (2 nM) were assayed on in 50 μL Tris 25 mM pH 7.6, at 37 °C with 100 μM of the fluorogenic substrate. hCP was incubated with Cu(II)/Zn(II) ions for 1 h prior activity assays. The fluorescence signal activated by peptide cleavage was recorded at 440 nm (excitation at 360 nm) for 45 min, by a Varioskan (Thermo^©) plate reader in 384 multiwell plates. Three replicates were performed for each data point. Data were reported as normalized percentages of residual activity. The potency (IC50) was calculated from the value of the dose response plot corresponding at a fractional activity of 50%. The IC50 values were determined using a non linear fit of experimental data in according to equation: […]
The midpoint of this function occurs at a fractional activity value of 50%, corresponding to half inhibition of the target enzyme. The IC50 values and their standard errors were deduced from the fitting. To evaluate if copper is a reversible PI, we measured the ChT-L activity of hCP incubated with Cu(II) (2.20 μM) before and after addition of an equimolar amount of EDTA.

[2] = system: T2, α3ΔN mutant 20S proteasome; assay: ChT-L peptidase activity of α3ΔN open-gate mutant yeast proteasome; format: biochemical, Saccharomices Cerevisiae; details: permanently open gate mutant
T2 construct: made in house; host or cells: Saccharomyces cerevisiae (mutant strain)
Excerpt: All the experimental data collected so far reconcile with the hypothesis that Cu(II) ions have a direct influence on the gating mechanisms of the 20S proteasome. To further validate this hypothesis, we assayed the effect of Cu(II) ions on the ChT-L peptidase activity of a mutant proteasome (α3ΔN) where deletion of the first nine N terminal residues of the α3 subunit results in permanently open gate conformation. […] It is worthy to remark here that several histidine residues are located at the entrance of the channel and, more specifically in the proximity of the N-terminal tail of the α3 subunit (Fig. 4 panels B and C). It is tempting to speculate that these His residues may play a major role in driving the Copper(II) –mediated gating dynamics.
as §1, with “Wild type 20S proteasome isolated from Saccharomices Cerevisiae (yCP) and a mutant (α3ΔN) where nine residues of the N-terminal tail of the α3 subunit are deleted to provide a permanently open-gate conformations were isolated as described elsewhere.” left out

[3] = system: T3, Wild type 20S proteasome (yCP); assay: ChT-L peptidase activity of wild type yeast 20S proteasome (yCP); format: biochemical, Saccharomices Cerevisiae; details: one-way ANOVA, p < 0.05
T3 construct: made in house; host or cells: Saccharomyces cerevisiae
Excerpt: Figure 4 (A) Copper(II)-inhibited ChT-L peptidase activity of yCP (red bars) and the α3ΔN mutant (green bars); (pdb code: 4Q1S). […] (B) Top views of the α-rings of yCP. C); Magnified picture of the yCP gate. The first nine residues of the α3 subunit, which are not present in the α3ΔN mutant, are represented in magenta. Two histidines (α6-H14 and α1-H6) located at the entrance of the gate and near the N-terminal segment of the α3 subunit are evidenced in red. A third His residue (α3-H30) is far away from the gate and is not shown.
as §1

[4] = system: T4, 26S/20S proteasome assembly in Hela cells; assay: Non-denaturing gel with in-gel peptidase activity of HeLa lysates (20S/26S ratio); format: cell-based, human; details: 24 h
T4 construct: endogenous in cells; host or cells: HeLa cells
Procedure: Proteasome-enriched fractions were subjected to non denaturing native gel electrophoresis, as described elsewhere. Briefly, 100 μg of fractionated Hela cells lysates, pretreated for 24 h with 0, 20 or 80 μM Cu(II), were run on a 3–12% non-denaturing, gradient polyacrylamide gel (Invitrogen, Carlsbad, CA) according to a protocol reported elsewhere. hCP (2 μM) treated for 2 h with 0 μM, 20 μM and 80 μM of Cu (II) was used as reference control. Peptidolytic activity of proteasome-enriched fractions from cell lysates was evaluated after incubating the gels in a Suc-LLVY-AMC substrate dissolved in 50 mM Tris pH 8.0, 5 mM MgCl2, 1 mM DTT, 1 mM ATP, at 37 °C for 15 min. Proteasome bands were identified by the release of highly fluorescent free AMC which allowed us to identify the proteasome holo and subcomplexes. Images of the gels were acquired by Chemidoc (Biorad), and fluorescent bands were quantified by using the Image J software.

[Cl][Cu][Cl] [Cu(II), CuCl2]
IC50 ([1]; hCP 2 nM, 1 h preincubation with ions, Tris 25 mM pH 7.6, 37 °C, no SDS, read-out: IC50 C-L): 1.01 µM | IC50 ([1]; in the presence of 0.018% SDS, other conditions unmodified, read-out: IC50 C-L, Cu(II) + SDS): 1.83 µM | Effect on ChT-L peptidase activity of α3ΔN mutant [2]: did not affect proteasome activity | ChT-L activity of yCP at 5 μM versus 3 μM [3]: significantly lower | Intensity of CP, CP-RP and CP-RP2 bands ([4]; 20 μM Cu(II)): does not vary with respect to control | Intensity of CP, CP-RP1 and CP-RP2 bands ([4]; 80 μM Cu(II)): the amount of CP increases
